Test systems include COLO 205 colon; NCI/ADR-RES ovarian; NCI-H460 lung; RPMI-8226 leukemia; UACC-62 melanoma; SR leukemia; SK-MEL-2 melanoma; HCT-116 colon; SN12C renal; PC-3 prostate.
What all share (test): DTP human tumour cell line panel, 48 h

Structures are written as SMILES. Several values for one entry are separate records, joined by “and”; a condition that tells them apart may be missing. Equal values may be shown once.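 Values below derive from 48-hour exposures of cells grown in 96-well plates, with endpoints linearly interpolated between the two concentrations bracketing the appropriate inhibition level. The concentration for 50% growth inhibition is given as GI50. TGI denotes the concentration required for complete inhibition of growth.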 Some results are limits rather than exact numbers.

With `Oc1cc(Br)cc2cc(Cl)cnc12`, the total growth inhibition concentration (TGI) is more than 54.9 µM in the experiment on COLO 205 colon; 10 µM with NCI/ADR-RES ovarian; 32.6 µM with NCI-H460 lung; 26 µM with RPMI-8226 leukemia; 6.1 µM with UACC-62 melanoma; more than 30.2 µM with SR leukemia. The TGI was 95.9 µM in the experiment on SK-MEL-2 melanoma, more than 42 µM with HCT-116 colon, 45.1 µM in the experiment with SN12C renal and more than 100 µM in the experiment on PC-3 prostate.
`O=c1ccc2nc(-c3ccccn3)nn(-c3ccccc3)c-2c1`: the GI50 with COLO 205 colon was 2.2 µM; in the experiment on NCI/ADR-RES ovarian it was 6.91 µM; in the experiment with NCI-H460 lung, 15.5 µM; in the experiment on UACC-62 melanoma, 1.95 µM; in the experiment with SR leukemia, 2.31 µM; in the experiment with SK-MEL-2 melanoma, 2.96 µM. Also, the GI50 is 1.77 µM in the experiment with HCT-116 colon, 2.24 µM in the experiment with SN12C renal and 1.93 µM in the experiment on PC-3 prostate. In addition, the concentration for total growth inhibition (TGI) in the experiment on COLO 205 colon was 5.12 µM; with NCI/ADR-RES ovarian it was 65.3 µM; in the experiment on NCI-H460 lung it was 32.8 µM; in the experiment on UACC-62 melanoma it was 4.3 µM; in the experiment with SR leukemia, more than 100 µM; with SK-MEL-2 melanoma, 8.68 µM. The TGI in the experiment on HCT-116 colon came to 3.42 µM; in the experiment with SN12C renal it was 5.33 µM; in the experiment with PC-3 prostate, 4.18 µM.
On to `O=c1ccc2ccc(O)cc2o1`, for which the TGI in the experiment on COLO 205 colon, with NCI/ADR-RES ovarian, in the experiment with RPMI-8226 leukemia, in the experiment with UACC-62 melanoma, with SK-MEL-2 melanoma and with HCT-116 colon was more than 100 µM throughout. Further, the TGI in the experiment with SN12C renal and in the experiment on PC-3 prostate was more than 100 µM throughout.
Take `C=C(C(=O)O[C@H]1C(=O)C2=C(C)CCC3C(=C)C(=O)O[C@@H]3C2[C@]1(C)O)C1CC[C@]2(C)CCCC(=C)[C@H]2C1` (stereo not given in full): the GI50 in the experiment on COLO 205 colon was 13.7 µM; with NCI/ADR-RES ovarian, 8.52 µM; in the experiment with NCI-H460 lung it was 0.0398 µM; in the experiment with UACC-62 melanoma, 16.9 µM; in the experiment on HCT-116 colon it was 2.09 µM; in the experiment on SN12C renal it was 7.25 µM. Besides, the GI50 in the experiment with PC-3 prostate is 4.08 µM. The total growth inhibition concentration (TGI) with COLO 205 colon was 23 µM and 34.8 µM; in the experiment with NCI/ADR-RES ovarian, 33.6 µM and > 23.8 µM; in the experiment with NCI-H460 lung it was 10.4 µM and 11.1 µM; in the experiment with UACC-62 melanoma, 9.79 µM and 31.6 µM; with SR leukemia, more than 100 µM; in the experiment on SK-MEL-2 melanoma, 20.3 µM and 23.5 µM. Moreover, the total growth inhibition concentration (TGI) was 9.96 µM and 8.4 µM in the experiment with HCT-116 colon; 15.5 µM and 8.62 µM in the experiment with SN12C renal; 10.4 µM and 16.8 µM in the experiment on PC-3 prostate.
Take `C/C=C(/C)C(=O)O[C@H]1[C@H](O)CC(c2ccc3c(c2O)C(O)=C2C(=O)C4(OC)C(O)=C(C(N)=O)C(=O)[C@H](CC(=O)c5ccccc5O)C4CC2[C@@]3(C)OC)O[C@@H]1C` (stereo not given in full): the TGI with COLO 205 colon was 0.0288 µM; with RPMI-8226 leukemia it was 0.557 µM and 1.76 µM; in the experiment on UACC-62 melanoma, 0.236 µM; with SR leukemia it was 0.355 µM; with SK-MEL-2 melanoma it was 0.0696 µM; in the experiment on HCT-116 colon, 0.0262 µM and 0.0189 µM. The TGI in the experiment on SN12C renal was 1.39 µM and 0.198 µM; with PC-3 prostate, 0.187 µM.
For `Brc1ccc2c(-c3csc(-c4c[nH]c5ccccc45)n3)c[nH]c2c1`, the TGI with COLO 205 colon amounted to 25.4 µM; with NCI/ADR-RES ovarian, 35.9 µM; in the experiment with NCI-H460 lung, 34.4 µM; in the experiment on RPMI-8226 leukemia, 46.6 µM; in the experiment on UACC-62 melanoma, 35.9 µM; with SR leukemia, 21.7 µM. For the same compound, the TGI was found to be 29.6 µM in the experiment with HCT-116 colon, 39.2 µM in the experiment on SN12C renal and 28.9 µM in the experiment on PC-3 prostate. For the same compound, in the experiment on SR leukemia, the GI50 was 6.36 µM.
Turning to `C=CCC(C(=O)Nc1cccc2[nH]cnc12)C(=O)OCC` (stereo not given), the concentration for total growth inhibition (TGI) with NCI/ADR-RES ovarian, in the experiment with NCI-H460 lung, in the experiment on RPMI-8226 leukemia, in the experiment on UACC-62 melanoma, in the experiment on SR leukemia and with SK-MEL-2 melanoma was more than 100 µM throughout. For the same compound, the concentration for total growth inhibition (TGI) with HCT-116 colon, in the experiment on SN12C renal and with PC-3 prostate was more than 100 µM in each case.
In the case of `Cc1ccc(-n2cc([Si](C)(C)C)nn2)s1`, the total growth inhibition concentration (TGI) with COLO 205 colon, with NCI/ADR-RES ovarian, with NCI-H460 lung, with RPMI-8226 leukemia, in the experiment with UACC-62 melanoma and with SK-MEL-2 melanoma was more than 100 µM in each case. Moreover, the concentration for total growth inhibition (TGI) with HCT-116 colon, in the experiment on SN12C renal and in the experiment with PC-3 prostate was more than 100 µM each time.
On to `CCN1CCC(O)(/C=C/c2ccc(OC)cc2)C(C(=O)/C=C/c2ccc(OC)cc2)C1` (stereo not given), for which the TGI with COLO 205 colon was 20.6 µM; in the experiment on NCI/ADR-RES ovarian, 21.9 µM; with NCI-H460 lung it was 27.6 µM; with RPMI-8226 leukemia, 44.8 µM; in the experiment with UACC-62 melanoma, 26.1 µM; with SR leukemia, 26.4 µM. The TGI in the experiment with HCT-116 colon was 14.7 µM; in the experiment on SN12C renal it was 28 µM; in the experiment with PC-3 prostate, 23.5 µM.
Turning to `CC1=C(C)C(=O)C(C2=CC(=O)C=CC2=O)=C(C2=CC(=O)C=CC2=O)C1=O`, the TGI was more than 100 µM in the experiment with COLO 205 colon; more than 100 µM in the experiment with NCI/ADR-RES ovarian; more than 100 µM with NCI-H460 lung; more than 100 µM in the experiment on UACC-62 melanoma; more than 100 µM with SK-MEL-2 melanoma; more than 79.2 µM in the experiment on HCT-116 colon. Also, the total growth inhibition concentration (TGI) was more than 71.8 µM in the experiment on SN12C renal and more than 100 µM with PC-3 prostate.
For `O=[N+]([O-])C(Cl)=C/C(=C(\Cl)SCc1ccccc1)[N+](=O)[O-]`, the TGI with COLO 205 colon is 32.3 µM; in the experiment with NCI/ADR-RES ovarian, more than 100 µM; with NCI-H460 lung it was more than 100 µM; in the experiment on UACC-62 melanoma it was more than 100 µM; with SK-MEL-2 melanoma, 76.5 µM; in the experiment on HCT-116 colon it was 44.1 µM. Also, the concentration for total growth inhibition (TGI) was determined as 45.3 µM with SN12C renal and 48.1 µM with PC-3 prostate.
On to `CCN1CCC(O)(/C=C/c2ccc(C(C)C)cc2)C(C(=O)/C=C/c2ccc(C(C)C)cc2)C1` (stereo not given), for which the concentration for total growth inhibition (TGI) in the experiment on COLO 205 colon is 5.11 µM; with NCI/ADR-RES ovarian, 8.44 µM; in the experiment on NCI-H460 lung, 3.35 µM; in the experiment with UACC-62 melanoma, 15.7 µM; in the experiment with SR leukemia, more than 20.9 µM; in the experiment on SK-MEL-2 melanoma, 10.5 µM. Besides, the figures for the TGI in the experiment with HCT-116 colon, in the experiment with SN12C renal and in the experiment with PC-3 prostate were 3.53 µM, 6.06 µM and 11.4 µM, respectively.
In the case of `Oc1ccc(Cl)cc1C1=NC(/N=C\c2ccccc2)=NC(c2ccccc2)C1` (stereo not given), the concentration for total growth inhibition (TGI) in the experiment with COLO 205 colon is more than 100 µM; in the experiment with NCI/ADR-RES ovarian, more than 100 µM; in the experiment with UACC-62 melanoma it was more than 100 µM; with SR leukemia it was 45 µM; in the experiment with SK-MEL-2 melanoma, more than 100 µM; in the experiment on HCT-116 colon, more than 100 µM. Moreover, the TGI in the experiment on SN12C renal and in the experiment with PC-3 prostate was more than 100 µM in each case.

These data come from PubChem BioAssay (NCI).
